In US4309439A, “Substituted-acetic acid ester” (Sumitomo Chemical Company, Limited, priority 1975, dated 1982):
In brackets after ≈: the same amount, converted by molar mass. Like-named read-outs stand apart in the source and are kept apart here.

Legend:
Format in all cases: in vivo
[1] = system: armyworms and cutworms, cabbage worm and diamond-back moth; test: green-house test on chinese cabbages with armyworms and cutworms, cabbage worm and diamond-back moth (Example 21); settings: 20% solution in cellosolve; active ingredient 50 g/10 are
Experimental: A green-house (3 m in height) was divided into plots having an area of 30 m^2 and chinese cabbages were grown up therein. Thereafter, armyworms and cutworms, cabbage worm and diamond-back moth were artificially made parasitic on the cabbages. The present compounds (1), (3) and (4) were each dissolved in cellosolve to make a 20% solution. Each test solution thus prepared was sprayed under pressure on the cabbages so that the amount of the active ingredient becomes 50 g/10 are.

[2] = system: smaller brown planthoppers (Laodelphax striatellus); test: LC50 against smaller brown planthoppers on sprayed rice plants (Experimental Example 2); settings: 24 h
Experimental: The following compounds as a control are also treated in the same manner as described above.
The emulsifiable concentrates thus formulated were diluted with water to a required concentration. Each test solution thus prepared was individually sprayed on the rice plants in a pot which had elapsed 25 days after sowing, in a proportion of 10 ml/pot. Thereafter, each pot was covered with a cylindrical wire net and 15 smaller brown planthoppers (Laodelphax striatellus) were liberated in the pot. After one day, the dead and alive were observed and the value of LC50 of every concentrate was obtained from the mortality.
The compounds of the present invention are expressed by the foregoing compound number.

[3] = system: Carmine mite female adults (Tetranychus cinnabarinus); test: damage of kidney beans by carmine mites (Example 20); settings: emulsifiable concentrate of Preparation Example 1 diluted 500 times; 10 cc/pot; after 10 days
Experimental: To 20 parts of each of the present compounds (1), (2), (3), (4), (5), (8), (10), (11), (14), (18), (19), (21), (23), (28), (30) and (33) are added 20 parts of Sorpol SM-200 (the same as above) and 60 parts of xylene. The mixtures are each thoroughly mixed to make a solution. Thus emulsifiable concentrate of each compound is obtained.
Carmine mite female adults (Tetranychus cinnabarinus) were made parasitic on the leaves of potted kidney beans (2-leaf stage) which had elapsed 9 days after sowing, in a proportion of 10-15/leaf. […] Among the emulsifiable concentrates formulated according to Preparation Example 1, those containing the present compounds (1), (4), (14), (19), (23), (30) and (33) were each diluted 500 times with water. At this time, each test solution thus prepared was sprayed in a proportion of 10 cc/pot by means of a turn table. After 10 days, damage of the kidney beans by the insects was checked.

[4] = system: house-fly adults (Musca domestica); test: knock-down of house-fly adults by 0.1% oil spray in glass chamber (Experimental Example 3); settings: 0.7 ml, (70 cm)^3 glass chamber
Experimental: Each of the following present compounds is formulated into a 0.1% oil spray using deodorized kerosene. The following compounds as a control are also likewise treated.
About 50 house-fly adults (Musca domestica) are liberated in a (70 cm)^3 glass chamber. Thereafter, 0.7 ml of each oil spray is sprayed under a pressure of 1.5 kg/cm^2 and the knock-down of the insects with the lapse of time is observed. This test is repeated several times with each oil spray to obtain the values of KT50 (time required for 50% knock-down) as shown in the following table. The present compounds are indicated by the foregoing compound number.

[5] = system: green rice leafhopper adults (Nephotettix cincticeps); test: kill of green rice leafhopper adults by dusts on rice plants (Example 18); settings: dust of Preparation Example 6 (with piperonyl-butoxide), 3 kg/10 are; after one day; 1440 min
Experimental: One part of each of the present compounds (2), (4), (5), (7), (12), (17), (20), (21), (22), (25), (26), and (35) and 5 parts of piperonyl-butoxide are dissolved in 20 parts of acetone, and then 94 parts of 300 mesh talc are added thereto. After thoroughly mixing in a mortar while stirring, acetone is removed by evaporation. Thus dust of each compound is obtained.
Among the dusts formulated according to Preparation Example 6, those containing the present compounds (2), (7), (12), and (25) were each dusted, using Belljar duster, on the rice plants in a 1/50,000 Wagner pot which had elapsed 45 days after sowing, in a proportion of 3 kg/10 are. After covering the pot with wire net, about 30 green rice leafhopper adults (Nephotettix cincticeps) were liberated therein. After one day, more than 70% of the test insects were killed.

[6] = system: green rice leafhoppers (Nephotettix cincticeps); test: mortality of green rice leafhoppers on sprayed rice plants (Experimental Example 1); settings: 30% concentrate / wettable powder diluted 300 times; 10 ml/pot; after one day; 1440 min
Experimental: An emulsifiable concentrate is prepared by blending 30% of each of the present compounds (1) to (35), 50% of xylene and 20% of Sorpol SM-200 (a registered trade mark of Toho Kagaku Co.).
The emulsifiable concentrates thus formulated were diluted 300 times with water. […] Each test solution thus prepared was individually sprayed on the rice plants in a pot which had elasped 25 days after sowing, in a proportion of 10 ml/pot. Thereafter, each pot was covered with a cylindrical wire net and 15 green rice leafhoppers (Nephotettix cincticeps) were liberated in the pot.

[7] = rice plants sprayed 10 ml/pot, after one day, read-out: LC50

Structure (SMILES)	LC50 [2, 7] [µg/mL]	KT50 (time required for 50% knock-down) [4] [s]	other results
C#CCC=C(C)C(C#C)OC(=O)C(c1ccc2c(c1)OCO2)C(C)C (stereo not drawn) [Compound 4, 4-Methylocta-4-ene-1,7-diyne-3-yl α-isopropyl-3,4-methylenedioxyphenyl-acetate]	28 (≈ 82.7 µM)	136	spread of damage by the insect [1]: no spread of damage by the insect was observed; increase in damage of the kidney beans [3]: an increase in the damage was not observed
C#CC(OC(=O)C(c1ccc(OC)cc1)C(C)C)C(C)=CCCC=C (stereo not drawn) [Compound 14, 4-Methylnona-4,8-diene-1-yne-3-yl α-isopropyl-4-methoxyphenylacetate]	46 (≈ 135 µM)	174	increase in damage of the kidney beans [3]: an increase in the damage was not observed
C=CCC1=C(C)C(OC(=O)C2C(C=C(C)C)C2(C)C)CC1=O (stereo not drawn) [Allethrin, reference compound]	–	504	–
C#CCC=C(C)C(C#C)OC(=O)C(c1cc2c(s1)CCC2)C(C)C (stereo not drawn) [Compound 30, 4-Methylocta-4-ene-1,7-diyne-3-yl 2-(4,5-tri-methylene-thienyl)-isovalerate]	–	158	increase in damage of the kidney beans [3]: an increase in the damage was not observed
CC(C)C(C(=O)OCc1coc(Cc2ccccc2)c1)c1ccc(Cl)cc1 (stereo not drawn) [reference compound]	–	510	–
C#CCC=C(CC)C(C#C)OC(=O)C(c1ccc(Cl)cc1)C(C)C (stereo not drawn) [Compound 10, 4-Ethylocta-4-ene-1,7-diyne-3-yl α-isopropyl-4-chlorophenylacetate]	34 (≈ 99.2 µM)	–	–
C#CCc1ccc(COC(=O)C(c2ccc(Cl)cc2)C(C)C)o1 (stereo not drawn) [reference compound]	68 (≈ 206 µM)	–	–
C#CCC=C(C)C(C#C)OC(=O)C(c1ccc(OC)cc1)C(C)C (stereo not drawn) [Compound 3, 4-Methylocta-4-ene-1,7-diyne-3-yl α-isopropyl-4-methoxyphenylacetate]	35 (≈ 108 µM)	139	spread of damage by the insect [1]: no spread of damage by the insect was observed
C#CCC=C(C)C(C#C)OC(=O)C(c1ccc2c(c1)CCC2)C(C)C (stereo not drawn) [Compound 33, 4-Methylocta-4-ene-1,7-diyne-3-yl 2-(5-indanyl)-isovalerate]	–	–	increase in damage of the kidney beans [3]: an increase in the damage was not observed
CNC(=O)Oc1ccccc1Cl [Hopcide, reference compound]	–	–	LC50 [2]: 75 µg/mL (≈ 404 µM)
C#CCC=C(C)C(C#C)OC(=O)C(c1cc2c(s1)CCCC2)C(C)C (stereo not drawn) [Compound 29]	48 (≈ 135 µM)	–	–
C#CCC=C(C)C(C#C)OC(=O)C(c1coc(C)c1)C(C)C (stereo not drawn) [Compound 6, 4-Methylocta-4-ene-1,7-diyne-3-yl 2-(5-methyl-3-furyl)-isovalerate]	32 (≈ 107 µM)	–	–
COc1ccc(C(C(=O)OC(C#N)c2cccc(Oc3ccccc3)c2)C(C)C)cc1 (stereo not drawn) [drawing 50, reference compound]	–	490	–
C#CCCC=C(C)C(C#C)OC(=O)C(CC)c1ccc(C#N)cc1 (stereo not drawn) [Compound 23, 4-Methylnona-4-ene-1,8-diyne-3-yl α-ethyl-4-cyanophenylacetate]	50 (≈ 157 µM)	140	increase in damage of the kidney beans [3]: an increase in the damage was not observed
C#CCC=C(C)C(C#C)OC(=O)C(c1cc2ccccc2o1)C(C)C (stereo not drawn) [Compound 34, 4-Methylocta-4-ene-1,7-diyne-3-yl 2-(2-benzo-furyl)-isovalerate]	–	170	–
C#CCC=C(C)C(C#C)OC(=O)C(c1csc(C)c1)C(C)C (stereo not drawn) [Compound 7, 4-Methylocta-4-ene-1,7-diyne-3-yl 2-(5-methyl-3-thienyl)-isovalerate]	–	175	test insects killed [5]: more than 70%
C#CCC=C(C)C(C#C)OC(=O)C(c1ccc(Cl)cc1)C(C)C (stereo not drawn) [Compound 1, 4-Methylocta-4-ene-1,7-diyne-3-yl α-isopropyl-4-chlorophenylacetate]	23 (≈ 69.9 µM)	128	spread of damage by the insect [1]: no spread of damage by the insect was observed; increase in damage of the kidney beans [3]: an increase in the damage was not observed
COc1ccc(C(C(=O)OCc2cccc(Oc3ccccc3)c2)C(C)C)cc1 (stereo not drawn) [reference compound]	87 (≈ 223 µM)	–	–
CC(C)=CC1C(C(=O)OCc2coc(Cc3ccccc3)c2)C1(C)C (stereo not drawn) [Resmethrin, reference compound]	–	> 600	–
C#CCC(C(=O)OC(C#C)C(=CCCC=C)CC)c1ccc(CC)cc1 (stereo not drawn) [Compound 25, 4-Ethylnona-4,8-diene-1-yne-3-yl α-propargyl-4-ethylphenylacetate]	–	–	test insects killed [5]: more than 70%
COc1ccc(C(C(=O)OC(C#N)c2cccc(Oc3ccccc3)c2)C(C)C)cc1 (stereo not drawn) [drawing 45, reference compound]	73 (≈ 176 µM)	–	–
C#CCCC=C(C)C(C#C)OC(=O)C(c1ccc(Br)cc1)C(C)C (stereo not drawn) [Compound 11, 4-Methylnona-4-ene-1,8-diyne-3-yl α-isopropyl-4-bromophenylacetate]	–	147	–
C#CC(C=Cc1ccccc1)OC(=O)C(c1ccc(SC)cc1)C(C)C (stereo not drawn) [Compound 27, 5-Phenylpenta-4-ene-1-yne-3-yl α-isopropyl-4-methylthiophenyl-acetate]	66 (≈ 181 µM)	–	–
C#CCC=C(C)C(C#C)OC(=O)C(c1ccc(OC)c(OC)c1)C(C)(C)C (stereo not drawn) [Compound 19, 4-Methylocta-4-ene-1,7-diyne-3-yl α-t-butyl-3,4-dimethoxyphenyl-acetate]	43 (≈ 117 µM)	–	increase in damage of the kidney beans [3]: an increase in the damage was not observed
C#CCC=C(C)C(C#C)OC(=O)C(c1ccc2c(c1)CCCC2)C(C)C (stereo not drawn) [Compound 5, 4-Methylocta-4-ene-1,7-diyne-3-yl α-isopropyl-3,4-tetramethylenephenyl-acetate]	–	140	–
C#CCc1ccc(C(C#C)OC(=O)C(c2ccc(OC)cc2)C(C)C)o1 (stereo not drawn) [reference compound]	–	183	–
C#CC(OC(=O)C(c1ccc(F)cc1)C(C)C)C(C)=CCc1ccccc1 (stereo not drawn) [Compound 12, 6-Phenyl-4-methylhexa-4-ene-1-yne-3-yl α-isopropyl-4-fluoro-phenylacetate]	–	–	test insects killed [5]: more than 70%
C#CCC=C(C)C(C#C)OC(=O)C(c1ccc(Cl)c(Cl)c1)C(C)C (stereo not drawn) [Compound 2, 4-Methylocta-4-ene-1,7-diyne-3-yl α-isopropyl-3,4-dichlorophenyl-acetate]	31 (≈ 85.3 µM)	–	test insects killed [5]: more than 70%
CNC(=O)Oc1cccc2ccccc12 [Carbaryl, 1-naphthyl-N-methylcarbamate]	–	–	mortality [6]: more than 90%
